In patent US20220296557A1, “COMBINATIONS OF BCL-2/BCL-XL INHIBITORS AND RELATED USES” (Ascentage Pharma (Suzhou) Co., Ltd., priority 2020, published 2022):

Legend:
Format in all cases: cell-based
[1] = system: BON-1; experiment: Cell viability/CTG assay, BON-1; settings: BON-1 cell line; CTG assay, 72 hr; values approximate; read-out: IC (μM, CTG assay: 72 hr)
Description: (§1) FIGS. 3A and 3B are a set of graphs showing the cell viability/CTG assays for NEN cell lines treated with BCL-2/xL inhibitor Compound No. 2 (an active metabolite of Compound No. 1)(FIG. 3A) or ABT-263 (FIG. 3B).
(§2) The activity of Compound No. 2 (an active metabolite of Compound No. 1) in overcoming apoptotic blockade in neuroendocrine neoplasm was tested, alone or in comparison with ABT-263.

[2] = system: QGP-1; experiment: Cell viability/CTG assay, QGP-1; settings: QGP-1 cell line; CTG assay, 72 hr; values approximate; read-out: IC (μM, CTG assay: 72 hr)
Description: as §1, §2

[3] = system: NCI-H727; experiment: Cell viability/CTG assay, NCI-H727; settings: Homo sapiens; NCI-H727 cell line; CTG assay, 72 hr; values approximate; read-out: IC (μM, CTG assay: 72 hr)
Description: as §1, §2

[4] = system: NCI-H460; experiment: Cell viability/CTG assay, NCI-H460; settings: Homo sapiens; NCI-H460 cell line; CTG assay, 72 hr; values approximate; read-out: IC (μM, CTG assay: 72 hr)
Description: as §1, §2

[5] = system: β-TC3; experiment: Cell viability/CTG assay, β-TC3; settings: β-TC3 cell line; CTG assay, 72 hr; values approximate; read-out: IC (μM, CTG assay: 72 hr)
Description: as §1, §2

[6] = system: MIN-6; experiment: Cell viability/CTG assay, MIN-6; settings: Mus musculus, MIN6; MIN-6 cell line; CTG assay, 72 hr; values approximate; read-out: IC (μM, CTG assay: 72 hr)
Description: as §1, §2

[7] = system: NEN cell lines; experiment: NEN cell viability (general statement); settings: FIGS. 3A and 3B
Description: as §1, §2

[8] = target: T1, BCL-xL:BIM complex (Homo sapiens, UniProt Q07817); experiment: BCL-2 family member complex intensity: BCL-xL:BIM; settings: BON-1 and QGP-1 treated with BCL-2/xL inhibitors; FIG. 4A
T1 construct: High expression of BCL-xL protein was found in NEN cell lines; endogenous in cells; host or cells: BON-1 and QGP-1 (printed QGP-I) NEN cell lines
T1 sequence (Q07817 whole entry, one chain of several): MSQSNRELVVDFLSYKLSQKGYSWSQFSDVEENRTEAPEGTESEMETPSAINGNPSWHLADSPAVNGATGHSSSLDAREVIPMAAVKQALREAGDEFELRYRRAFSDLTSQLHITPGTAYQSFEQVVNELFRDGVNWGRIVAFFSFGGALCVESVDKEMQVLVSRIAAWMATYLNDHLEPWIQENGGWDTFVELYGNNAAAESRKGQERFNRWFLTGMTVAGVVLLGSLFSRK
Source text: (§3) FIGS. 4A-4C are a set of graphs showing the BCL-2 family member complex intensity in BON-1 and QGP-I treated with BCL-2/xL inhibitors (FIG. 4A: BCL-xL:BIM complex, FIG. 4B: BCL-xL:PUMA complex; and FIG. 4C: BAX:BAK protein complexes).

[9] = system: BAX:BAK complex; experiment: BCL-2 family member complex intensity: BAX:BAK; settings: BON-1 and QGP-1 treated with BCL-2/xL inhibitors; FIG. 4C
Source text: as §3

SMILES	IC50 [1] [µM]	IC50 [2] [µM]	IC50 [3] [µM]	IC50 [4] [µM]	IC50 [5] [µM]	IC50 [6] [µM]	NEN cell viability [7]	BCL-xL:BIM complex [8]	BAX:BAK complex [9]
CC1(C)CCC(c2ccc(Cl)cc2)=C(CN2CCN(c3ccc(C(=O)NS(=O)(=O)c4ccc(N[C@H](CCN5CCOCC5)CSc5ccccc5)c(S(=O)(=O)C(F)(F)F)c4)cc3)CC2)C1 [ABT-263, 4-(4-{[2-(4-Chlorophenyl)-5,5-dimethyl-1-cyclohexen-1-yl]methyl}-1-piperazinyl)-N-[(4-{[(R)-4-(4-morpholinyl)-1-(phenylsulfanyl)-2-butanyl]amino}-3-[(trifluoromethyl)sulfonyl]phenyl)-sulfonyl]benzamide, reference compound]	0.91	≥ 10	3.74	71	1.12	5.56			
Cc1c(S(C)(=O)=O)c(-c2cc(F)cc(N3CCN(c4ccc(NS(=O)(=O)c5ccc(N[C@H](CCN6CCC(C(=O)O)CC6)CSc6ccccc6)c(S(=O)(=O)C(F)(F)F)c5)cc4)CC3)c2)c(-c2ccc(Cl)cc2)n1C(C)C [Compound No. 2]	0.43	3.78	3.79	≥ 10	0.55	2.07	inhibits the NEN cell viability	decreases BCL-xL:BIM complex	increases BAX:BAK complex
